# Legend:
# Assay type in all cases: cell-based, human
# TNFα = TNFα release by PHA-stimulated PBL (ELISA); conditions: Example 3, GR191 PBL, Cpd II 15 and 50 μg/ml, Dex 10 μM, 72 hours, FIG. 7
# Protocol: After this incubation, PHA was added to give a final concentration of 5 μg/ml, and the cells were incubated for an additional 72 hours at 37° C., 5% CO2. All cultures were performed in triplicate. Cells were then removed by centrifugation at 1000 rpm for 10 minutes.
# The TNFα ELISA was performed as described in Example 2 using matched pair antibodies from Pierce Endogen (2 μg/ml for the coating antibody and 250 ng/ml for the second antibody).
# IL-8 = IL-8 release by PHA-stimulated PBL (ELISA); conditions: Example 4, GR-192 PBL; 15 μg/ml Cpd II, 10 μM Dex; PHA 2 μg/ml, 96 hours; FIG. 8
# Protocol: Whole blood was drawn from GR-192, a normal human volunteer, and processed as described in Example 1 to give heat-inactivated serum and PBL. […] After this incubation, PHA was added to give a final concentration of 2 μg/ml, and the cells were incubated for an additional 96 hours at 37° C., 5% CO2. All cultures were performed in triplicate. Cells were then removed by centrifugation at 1000 rpm for 10 minutes, and the culture medium collected.
# To perform the ELISA, matched pairs of antibodies against human IL-8 were purchased from Pierce Biotechnology and Biosource, respectively. ELISA strip well plates were coated with 2 μg/ml of antibody to IL-8 (in phosphate-buffered saline (PBS)) overnight at room temperature. The plates were then blocked using a 4% BSA solution in PBS for one hour, followed by the addition of 50 μl of experimental culture medium per well in duplicate. The plates were incubated at room temperature for one hour and then washed using 50 mM Tris pH 8.0 with 0.1% Tween 20. Then, solutions of 100 ng/ml biotinylated second antibody to IL-8 were made in blocking buffer, and 100 μl were added per well. The plates were incubated for 1 hour and washed again. […] OD was determined using microplate reader with a 450 nm filter.
# NFκB = assay: Activated NFκB in VEGF-treated HUVECs (TransAM assay); conditions: Cpd II at 15 μg/ml and 5 μg/ml
# Protocol: Passage 5 HUVECs, human source lot number 8750, were grown to confluence in 25 cm^2 flasks in EGM-2 medium. The following additives were added to the flasks (total volume of 5 ml/flask) in EGM-2 medium containing 2% FCS, GA1000 (gentamycin), heparin and ascorbic acid (all from Cambrex): 1 μg/ml of the compound of formula II (Cpd II); 5 μg/ml Cpd II; 15 μg/ml of Cpd II; 15 μg/ml methylphenidate (MP); or 10 μM LY 294002. The flasks were incubated overnight at 37° C., 5% CO2. After this incubation, VEGF was added to give a final concentration 10 ng/ml, and the flasks were incubated for an additional 30 minutes.
# Then, the amount of NFκB was determined using a TransAM™ NFκB p65/NFκB p50 Transcription Factor Assay Kit and a Nuclear Extract Kit from Active Motif North America, Carlsbad, Calif., according to the manufacturer's instructions. Briefly, a nuclear extract of the cells was prepared using the Nuclear Extract Kit. Then, the nuclear extract was added to the wells of the 96-well plate of the TransAM™ kit. […] Then, an antibody directed against the NFκB p65 or p50 subunit was added, and the NFκB complex bound to the oligonucleotide was detected. A secondary antibody conjugated to horseradish peroxidase (HRP) was next added to provide a colorimetric readout that was quantified by spectrophotometry (measurement at 450 nm).
# [1] = system: CD3/CD28 stimulated TRiPS cells; assay: Custom AntibodyArray of cell extracts of CD3/CD28 stimulated TRiPS cells; conditions: 15 μg/ml, 30 minutes; antibody array, phospho-specific detection
# Protocol: Day 18 TRiPS cells, 1×10^6, were incubated for 30 minutes at 37° C., either with nothing added (“Nil”), with 1 μl CD3/CD28 Dynabeads (Dynal, Oslo, Norway) (“CD3/CD28 beads”) per 100,000 cells, or with CD3/CD28 beads and 15 μg/ml of the compound of formula II (Cpd II). After the incubation, the cells were lysed in Cell-Lytic Mammalian Cell Extraction Reagent (Sigma). After centrifugation to pellet cellular debris, the supernatants (cell extracts) were obtained.
# The cell extracts (supernatants) were then analyzed using a Custom AntibodyArray™ manufactured by Hypromatrix Inc., Worcester, Mass., following the manufacturer's instructions. The Custom AntibodyArray™ is a nylon membrane blotted with antibodies to the proteins listed below. Briefly, the cell extracts were incubated with duplicate Custom AntibodyArray™, s for 2 hours at room temperature with slow shaking, followed by three washes with Tris buffer (150 mM NaCl, 25 mM Tris, 0.05% Tween-20, pH 7.5). HRP-labeled antibodies specific for phosphorylated-tyrosine, phosphorylated-serine and phosphorylated-threonine in Tris buffer were added, and the arrays incubated for 2 hours. After three more washes with Tris buffer, a peroxidase-reactive luminescent substrate was added. The arrays were visualized by exposure to X-ray film. Densitometry of the X-ray films was measured by scanning and computer analysis.
smiles,measurement,setting,value
COC(=O)C(c1ccc(-c2ccccc2)cc1)C1CCCCN1 (centres unmarked) [Cpd II],release of TNFα from PHA-stimulated PBL,TNFα,significantly inhibited the release of TNFα
same,IL-8 release induced by PHA,IL-8,significantly inhibited IL-8 release
same,amount of activated NFκB,NFκB,reduced the amount of activated NFκB back to basal levels
same,Effect of Cpd II on the protein in CD3/CD28 stimulated TRiPS cells: 14-3-3,[1],Slightly decreased the level
same,Effect of Cpd II on the protein in CD3/CD28 stimulated TRiPS cells: IL-2,[1],Decreased level back to basal levels (Nil control)
same,Effect of Cpd II on the protein in CD3/CD28 stimulated TRiPS cells: IL-4,[1],Decreased level back to basal levels (Nil control)
same,Effect of Cpd II on the protein in CD3/CD28 stimulated TRiPS cells: IL-7y,[1],Decreased level back to basal levels (Nil control)
same,Effect of Cpd II on the protein in CD3/CD28 stimulated TRiPS cells: IkB-r,[1],Decreased level back to basal levels (Nil control)
same,Effect of Cpd II on the protein in CD3/CD28 stimulated TRiPS cells: IkB-α,[1],Slightly decreased the level
same,Effect of Cpd II on the protein in CD3/CD28 stimulated TRiPS cells: IkB-β,[1],Decreased level back to basal levels (Nil control)
same,Effect of Cpd II on the protein in CD3/CD28 stimulated TRiPS cells: IkB-ε,[1],Slightly decreased the level
same,Effect of Cpd II on the protein in CD3/CD28 stimulated TRiPS cells: JAK2,[1],Activated
same,Effect of Cpd II on the protein in CD3/CD28 stimulated TRiPS cells: JNK1,[1],Decreased level back to basal levels (Nil control)
same,Effect of Cpd II on the protein in CD3/CD28 stimulated TRiPS cells: JNK2,[1],Decreased level back to basal levels (Nil control)
same,Effect of Cpd II on the protein in CD3/CD28 stimulated TRiPS cells: JNK3,[1],Decreased level back to basal levels (Nil control)
same,Effect of Cpd II on the protein in CD3/CD28 stimulated TRiPS cells: MEK1,[1],Decreased level to below basal levels (Nil control)
same,Effect of Cpd II on the protein in CD3/CD28 stimulated TRiPS cells: MEKK1,[1],Decreased level back to basal levels (Nil control)
same,Effect of Cpd II on the protein in CD3/CD28 stimulated TRiPS cells: PI3kinaseP85,[1],Activated
same,Effect of Cpd II on the protein in CD3/CD28 stimulated TRiPS cells: RAP1,[1],Activated
same,Effect of Cpd II on the protein in CD3/CD28 stimulated TRiPS cells: RAP2,[1],Activated
same,Effect of Cpd II on the protein in CD3/CD28 stimulated TRiPS cells: STAT4,[1],Activated
same,Effect of Cpd II on the protein in CD3/CD28 stimulated TRiPS cells: STAT5b,[1],Activated
same,Effect of Cpd II on the protein in CD3/CD28 stimulated TRiPS cells: STAT6,[1],Slightly decreased the level

# Source: patent US8076485B2, “Methylphenidate derivatives and uses of them” (priority 2005, dated 2011)
